The text below walks through data of patent US20030229164A1, “Low foam N-alkyltartarimide and N-alkylmalimide wetting agents” (priority 2002, published 2003).

A short description of data set [1]: Equilibrium surface tension of aqueous solutions, Wilhelmy plate method. The format is physicochemical. Particulars: for lowering the equilibrium surface tension of water (in words): aqueous solutions, Table 1 data; for Limiting EST: saturated solutions containing <0.1 wt % in distilled water, filtered, Wilhelmy plate. The protocol:
where R^1 is a C5 to C10 alkyl group. […] The Wilhelmy plate method of measuring surface tension is described in L. Wilhelmy's article in Ann. Phys. 1863, 119, 177, which is incorporated by reference.
Saturated solutions containing <0.1 wt % of the materials of Examples 1-4 in distilled water were prepared. After shaking the solutions for ˜24 hours, the undissolved material was removed via filtration. Equilibrium surface tension data were obtained using the Wilhelmy plate method.
The limiting surface tensions represent the lowest surface tensions in water which can be achieved for a given surfactant regardless of the amount of surfactant used and is used to evaluate the effectiveness of a surfactant. Lower surface tensions would allow the elimination of defects upon application of a formulation onto low energy surfaces.

Data set [2] is described as follows: Foaming properties of aqueous solutions, procedure based upon ASTM D 1173-53. The format is physicochemical. Particulars: for Initial Foam: foam height at completion of addition. The protocol: The foaming properties of aqueous solutions of N-2-ethylhexyl tartarimide (Ex 1), N-decyl tartarimide (Ex 2), N-2-ethylhexyl malimide (Ex 4) and two representative nonionic surfactants, a commercial nonylphenol 15 mole ethoxylate surfactant and a commercial C8 alkyl glucoside surfactant, were examined using a procedure based upon ASTM D 1173-53.
In this test, a 0.1 wt % aqueous mixtures of the tartramides and malimide were prepared, any undissolved solids were filtered off, and the filtrate was added from an elevated glass pipette to a glass receiver containing the same filtrate. Regarding the commercial materials, a 0.1 wt % solution of the surfactant was added from an elevated glass pipette to a glass receiver containing the same solution. The foam height was measured at the completion of the addition (“Initial Foam Height”) and the time required for the foam to dissipate at the air-liquid interface (“Time to 0 Foam”) was recorded. This test provides a comparison between the foaming characteristics of various surfactants. In general, in coatings, inks, adhesives and agricultural formulations, foam is undesirable because it complicates handling and can lead to coating and print defects, and to inefficient application of agricultural materials.

Where [3] appears, read: 0.1 wt % aqueous mixture (filtrate) or solution.

Regarding `CCCCCCCCCCN1C(=O)C(O)C(O)C1=O` (racemic) [Example 2, N-Decyl DL-tartarimide], in data set [1], the “lowering the equilibrium surface tension of water (in words)” value is reported as “particularly effective” and the “Limiting EST” value is 32.0 dyne/cm. Moreover, in data set [2] (setting [3]), the “Foam after 5 min” value was determined as 0 cm and the “Initial Foam” value worked out at 3.2 cm. Further, the “Time to zero foam” value in data set [2] (0.1 wt % aqueous mixture (filtrate) or solution, values given in min) came to 3.8 min.
Turning to `CCCCCCN1C(=O)C(O)C(O)C1=O` (racemic) [Example 3, N-hexyl DL-tartarimide], in data set [1], the “Limiting EST” value amounted to 51.8 dyne/cm.
Regarding `CCCCC(CC)CN1C(=O)C(O)C(O)C1=O` (centres unmarked) [Example 1, N-2-Ethylhexyl tartarimide], in data set [1], the “lowering the equilibrium surface tension of water (in words)” value is recorded as “particularly effective” and the “Limiting EST” value is 34.2 dyne/cm. For the same compound, in data set [2] (setting [3]), the “Foam after 5 min” value was 0 cm and the “Initial Foam” value is listed as 0 cm. Also, the “Time to zero foam” value in data set [2] (0.1 wt % aqueous mixture (filtrate), values printed in sec) worked out at 0 min.
